Data: patent publication US20070053975A1, “Ramipril formulation” (Selamine Limited, priority 2005, published 2007)

Key:
[1] = cited from earlier work
[2] = Stability of Ramipril on exposure to stomach juices / acid pH; type: physicochemical
[3] = oral administration, fasted state; cited from earlier work

| Stability on exposure to stomach juices (acid pH) [2] | Compound | Absorption in the presence of food [1] | Time to peak plasma concentrations [3] |
| --- | --- | --- | --- |
| – | CC(=O)Oc1ccccc1C(=O)O [aspirin] | delayed | – |
| breaks down | CCOC(=O)[C@H](CCc1ccccc1)N[C@@H](C)C(=O)N1[C@H](C(=O)O)C[C@@H]2CCC[C@@H]21 [Ramipril, (2S,3aS,6aS)-1[(S)-N-[(S)-1-carboxy-3-phenylpropyl]alanyl]octahydrocyclopenta[b]pyrrole-2-carboxylic acid, 1-ethyl ester] | – | one |
